In patent publication US20240150341A1, “COMPOSITION FOR PREVENTING OR TREATING DISEASES CAUSED BY MITOCHONDRIAL DYSFUNCTION, CONTAINING ISOQUINOLINE DERIVATIVE COMPOUND AS ACTIVE INGREDIENT” (ALTMEDICALCO., LTD., priority 2021, published 2024):

Assays:
[1] = tested on: PINK1 knockdown cells (shPINK1), BEAS-2B; experiment: Mitophagy activity in PINK1 knockdown (shPINK1) BEAS-2B cells (FACS); assay type: cell-based, human; conditions: CCCP 10 μM, CD1-012 15 μM, 18 hours, FIG. 7
Method: In order to analyze whether the activation of mitophagy by the CD1-012 synthesized in Example 1 is dependent on the PINK1-Parkin pathway, the PINK 1 was knockdown using short hairpin RNA (shRNA) in BEAS-2B cell lines. Then, CCCP (10 μM) from Comparative Example 1 and the CD1-012 (15 μM) were treated for 18 hours, and the mitophagy activity of each sample was analyzed using a flow cytometry (FACS) and represented in FIG. 7.

[2] = tested on: mitochondrial membrane potential; experiment: Mitochondrial membrane potential, TMRM assay; assay type: cell-based; conditions: CD1-012 10 μM or 15 μM, CCCP 10 μM, FIG. 6
Method: (§1) To determine if the CD1-012 synthesized in Example 1 induces mitochondrial dysfunction similar to CCCP of Comparative Example 1, the CD1-012 (10 μM or 15 μM) and the CCCP (10 μM) were treated for hours. Afterward, the mitochondrial membrane potential and the level of mitochondrial reactive oxygen species (ROS) of each sample were analyzed, and the results were represented in FIG. 6.
(§2) The mitochondrial membrane potential was analyzed using the TMRM (tetramethylrhodamine methyl ester) assay, and the mitochondrial ROS was analyzed using the MitoSOX assay.

[3] = tested on: mitochondrial reactive oxygen species (ROS); experiment: Mitochondrial reactive oxygen species, MitoSOX assay; assay type: cell-based; conditions: CD1-012 10 μM or 15 μM, CCCP 10 μM, FIG. 6
Method: as §1, §2

[4] = tested on: SH-SY5Y overexpressing APPswd/ind protein; experiment: ATP generation level in Alzheimer's disease cell model; assay type: cell-based, human; conditions: CD1-012 20 μM, measured 48 hours later, FIG. 8
Method: To verify whether the CD1-012 synthesized in Example 1 improves mitochondrial dysfunction in the Alzheimer's disease cell model, the human neuron cell line SH-SY5Y was overexpressed with APPswd/ind protein causing Alzheimer's disease to prepare the Alzheimer's disease cell model. After treating the cell model with the CD1-012 (20 μM) for hours, the ATP generation level, an indicator of mitochondrial function, was measured 48 hours later and the results were represented in FIG. 8.

[5] = tested on: HeLa cervical cancer cell line (Hela-Parkin); experiment: Mitophagy activity in HeLa-Parkin cells (FACS); assay type: cell-based; conditions: FIG. 2B
From the text: (§3) To analyze the mitophagy-promoting activity effect of the isoquinoline derivative compound synthesized in the Example 1 (hereinafter, CD1-012), a quantification method for mitophagy activity, using a mt-Keima fluorescent protein, was utilized, which can measure the mitophagy activity in living cells through flow cytometry or a confocal microscope.
(§4) To determine whether CD1-012 synthesized in Example 1 enhances mitophagy activity in various cell lines, the human neuroblastoma cell line, SH-SY5Y, expressing mt-Keima fluorescent protein and HeLa cervical cancer cell line (Hela-Parkin) expressing Parkin (E3ligase) were treated with CD1-012 and CCCP of Comparative Example 1. Following this treatment, the mitophagy activity of each sample was analyzed using flow cytometry (FACS), and the results were represented in FIG. 2.
(§5) Specifically, FIG. 2A represents the analysis results for the SH-SY5Y cell line, and FIG. 2B represents the analysis results for the HeLa-Parkin cell line.

[6] = tested on: BEAS-2B cell line; experiment: Mitophagy activity with mt-Keima fluorescent protein in BEAS-2B cells (flow cytometry / confocal microscope); assay type: cell-based, human
From the text: as §3
To analyze the mitophagy-promoting activity effect of CD1-012 synthesized in Example 1, the BEAS-2B cell line, which is a human normal lung cell line, was induced to express the mt-Keima fluorescent protein. Following this, the CD1-012 (15 μM) and the compound of Comparative Example 1, CCCP (10 μM), were treated for 24 hours. After the treatment, the mitophagy activity of each sample was measured, and the results were represented in FIG. 1.
Specifically, FIG. 1A represents the analysis results using flow cytometry (FACS), FIG. 1B represents the analysis results using a confocal microscope, and FIG. 1C represents the measurement results of the quantitative changes in the mitochondria using a fluorescent protein, mito-YFP, which includes a targeting sequence to transport protein to the mitochondria.
To analyze whether CD1-012 synthesized in Example 1 promotes mitophagy activity in a concentration and time-dependent manner, the BEAS-2B cell line expressing mt-Keima was treated with varying concentrations of CD1-012 or a constant concentration (15 μM) for different durations. The mitophagy activity was then measured using flow cytometry, with the concentration-dependent mitophagy activity results represented in FIG. 3A and the time-dependent mitophagy activity results in FIG. 3B.
(§6) To confirm whether the synthesized CD1-012 in Example 1 specifically increases mitophagy activity, the CD1-012 (15 μM) of the Example 1 and the CCCP (10 μM) of Comparative Example 1 were treated to the BEAS-2B cell line expressing mt-Keima for 18 hours. Subsequently, the mitophagy activity was analyzed using a confocal microscope, and the results were represented in FIG. 4A. Moreover, the BEAS-2B cell line expressing Keima fluorescent protein was cultured in HBSS (Hanks' balanced salts solution) for 3 hours to induce a nutrient-deficient state (starvation, starv.). The autophagy activity was measured by comparing the sample treated with the CD1-012 (15 μM) for hours using a confocal microscope, and the results were represented in FIG. 4B.
The mitophagy-promoting activity effect of each sample was compared, and the results were represented in FIG. 5.

[7] = tested on: SH-SY5Y; experiment: Mitophagy activity in SH-SY5Y cells expressing mt-Keima (FACS); assay type: cell-based, human; conditions: FIG. 2A
From the text: as §3, §4, §5

[8] = tested on: APP/PS2 mice; experiment: Morris water maze test in Alzheimer's disease mouse model; assay type: in vivo; conditions: for memory capabilities, free-swimming analysis on the 7th day: intranasal, every day for 4 weeks, CD1-012 1 mg/Kg, palmatine 10 mg/Kg, FIG. 10
Method: Subsequently, to analyze the representative symptom improvement effect of Alzheimer's disease, spatial learning and memory abilities were measured through the Morris water maze test (represented in FIG. 10, 9-10 mice per group). During the behavior test, from day 1 to day 6, training was conducted, where the time taken from the start to climb the escape stand was measured 4 times. On the 7th day, free-swimming test was conducted for 60 seconds, and the time spent in the area where the escape stand was located during training was measured to analyze the learning and memory abilities of the experimental animals. The results were represented in […].
For the purpose of comparing the treatment effect of the CD1-012 synthesized in Example 1 with that of palmatine in Comparative Example 2 on an Alzheimer's disease animal model, APP/PS2 mice were intranasally administered with the CD1-012 at a concentration of 1 mg/Kg and palmatine at 10 mg/Kg every day for 4 weeks. The treatment effects on dementia were confirmed with a water maze test, and the results were represented in FIG. 10 (9-10 mice per group).

[9] = tested on: BEAS-2B cell line; experiment: Autophagy activity in BEAS-2B cells expressing Keima fluorescent protein (confocal microscope); assay type: cell-based, human; conditions: CD1-012 15 μM; compared with HBSS starvation 3 hours; FIG. 4B
Method: as §6

[10] = BEAS-2B mt-Keima, flow cytometry, FIG. 3A
[11] = APP/PS2 mice, 1 mg/kg every day for 4 weeks, nasal administration, FIG. 9

In the case of `N#CC(C#N)=NNc1cccc(Cl)c1` [CCCP, Carbonyl Cyanide 3-chlorophenylhydrazone, reference compound], the “mitophagy activation in shPINK1 cells compared to the control cell line (shNT)” value [1] is reported as “significantly decreased”, the mitochondrial membrane potential [2] is reported as “significantly reduced the mitochondrial membrane potential” and the “mitochondrial ROS” value [3] is reported as “significantly increased mitochondrial ROS”.
For `Oc1cc2c(cc1O)-c1cc3ccc(O)c(O)c3c[n+]1CC2` [CD1-012, 2,3,9,10-Tetrahydroxy-5,6-dihydroisoquinolino[3,2-a]isoquinolin-7-iumbromide], the ATP production level [4] was “recover and increase”, the “mitophagy activity compared to the control group” value [5] was “significant increase in mitophagy activity” and the “mitophagy activation in shPINK1 cells compared to the control cell line (shNT)” value [1] was “did not show any significant difference”. For the same compound, the mitochondrial membrane potential [2] was “did not observe a decrease in the mitochondrial membrane potential”, the “time from which a significant increase in mitophagy activity was observed” value ([6]; BEAS-2B mt-Keima, 15 μM, flow cytometry, FIG. 3B) was 3 h and the “concentration exhibiting mitophagy activity similar to the maximum of the comparators” value ([6]; BEAS-2B mt-Keima, FIG. 5) was 10 µM. For the same compound, the “concentration from which mitophagy activity began to significantly increase” value [6, 10] was 7.5 µM, the “concentration up to which mitophagy activity continued to increase concentration-dependently” value [6, 10] was 17.5 µM and the “mitophagy activity compared to the untreated control group” value ([6]; BEAS-2B mt-Keima, CD1-012 15 μM, 24 hours, FIG. 1) was “significant increase in mitophagy activity”. For the same compound, the “mitophagy activity compared with CCCP-treated sample” value ([6]; flow cytometry (FIG. 1A), CD1-012 15 μM vs CCCP 10 μM, 24 hours) was “increased as significantly as that of the sample treated with the representative mitophagy promoting compound, CCCP”, the “mitophagy-promoting activity effect, times better than berberine” value ([6]; from FIG. 5 concentrations) was “approximately 8 times” and the “mitophagy-promoting activity effect, times better than palmitate” value ([6]; from FIG. 5 concentrations) was “about 40 times”. The “mitochondrial ROS” value [3] was “did not increase mitochondrial ROS”, the “mitophagy activity compared to the control group” value [7] was “significant increase in mitophagy activity” and the “concentration for similar dementia treatment effect, times lower than that of palmatine” value ([8]; 1 mg/Kg vs 10 mg/Kg palmatine) was 10 times. For the same compound, the “learning effect (escape latency) during 6 days of training” value [8, 11] was “learning effect from day 3 to day 6”, the “time spent near the escape platform, free-swimming analysis on the 7th day” value [8, 11] was “recovered close to that of normal mice” and the “memory capabilities, free-swimming analysis on the 7th day” value ([8]; APP/PS2 mice) was “improved similarly”. The autophagy activity [9] was “did not increase autophagy activity”.
In the case of `COc1ccc2cc3[n+](cc2c1OC)CCc1cc2c(cc1-3)OCO2` [berberine, Berberine, reference compound], the “concentration at which maximum mitophagy activity was reached” value ([6]; BEAS-2B mt-Keima, FIG. 5) is reported as 80 µM.
With `COc1cc2c(cc1OC)-c1cc3ccc(OC)c(OC)c3c[n+]1CC2` [palmatine, Palmatine, reference compound] the “concentration at which maximum mitophagy activity was reached” value ([6]; BEAS-2B mt-Keima, FIG. 5) was 400 µM and the “memory capabilities, free-swimming analysis on the 7th day” value ([8]; APP/PS2 mice) was “improved similarly”.
